The values below are quoted from earlier work in US8584539B2, “Delivery device for dispensing pharmaceutical dosage forms into dissolution testing apparatus” (Rohm and Haas Company, priority 2010, dated 2013).

Like-named read-outs stand apart in the source and are kept apart here.

Regarding `O=C(O)Cc1ccccc1Nc1c(Cl)cccc1Cl` [diclofenac sodium], the solubility result (low pH of the stomach) is given as “essentially insoluble” and the solubility result (near neutral conditions of the upper GI) is listed as “soluble”.
